The source of these data is article PMC11855827, “High-Throughput Screening of Five Compound Libraries for Anthelmintic Activity and Toxicity Leads to the Discovery of Two Flavonoid Compounds” (International Journal of Molecular Sciences, 2025).

Read-outs that look alike come from different tables or passages of the source. Marks after values point to notes of the source that are not given here.

Assay [1] relates to C. elegans. The assay can be described thus: C. elegans motility dose-response (DR) assay. More on the design: species or system Caenorhabditis elegans.
The test system of assay [2] is H. contortus susceptible strain. In words: Egg hatch inhibition (EHI), ovicidal effect. More on the design: species or system Haemonchus contortus. The following applies: for H. contortus EHI (%) / inhibition at 100 µM: susceptible strain, 100 μM, NE = Not Effective at 100 μM, control thiabendazole 0.1 µg/mL.
Assay [3] relates to T. circumcincta resistant strain. The assay can be described thus: Egg hatch inhibition (EHI), ovicidal effect. More on the design: species or system Teladorsagia circumcincta.
Assay [4] deals with H. contortus susceptible strain. The assay can be described thus: Larval migration inhibition test (LMIT). More on the design: species or system Haemonchus contortus. The following applies: L3, 100 μM, NE = Not Effective at 100 μM, control ivermectin 8.75 µg/mL; for inhibition at 100 µM: Haemonchus contortus, 24 h. An excerpt:
(§1) Eggs and third instar larvae (L3) of H. contortus from a field strain and a resistant strain of T. circumcincta were used in the current trials. These parasitic forms were obtained from fresh feces of Merino and Churra sheep experimentally infected at the experimental farm of the Instituto de Ganadería de Montaña (IGM, CSIC, Gruyeros, León, Spain) and purified according to previously described methods. Briefly, eggs were taken from fresh feces, washed, centrifuged and floated with a saturated sodium chloride solution, then concentrated, counted and used in the assays. L3 were obtained by culturing feces at 25 °C for 13 d. L3 larvae were […] in 0.5% sodium hypochlorite solution for 10 min at room temperature and washed to avoid excess salt. After washing, they were concentrated and counted for use.
(§2) The viability of H. contortus larvae was assessed by the larval migration inhibition test (LMIT) according to previously described methods. Briefly, 700 µL aliquots containing 500–600 L3 were prepared for each compound. […] After a 24 h incubation at 28 °C, the compound was removed by three washes, leaving a final volume of 1400 µL. After the washes, three 400 µL aliquots were taken from each tube and transferred to a 96-well plate with a MultiScreen mesh filter. The plates were incubated for a further 24 h at 28 °C to allow the motile L3 to pass through the 20 µm mesh for counting. Then, the number of larvae present in each well was counted to determine percentage of larval migration for each compound: % Larval migration=number of larvae migrating in compound wells/number of larvae migrating in negative control×100
(§3) For the larvae, ivermectin at 8.75 µg/mL and DMSO 0.5% (v/v) were used as controls and at least 12 replicates were performed. […] EC50 were determined by plotting the percentage of viability of the L1 against the concentration of each compound, using the nonlinear fit analysis provided by the SigmaPlot® 10.1.

Assay [5] concerns T. circumcincta resistant strain. In words: Larval migration inhibition test (LMIT). The following applies: for inhibition at 100 µM: Teladorsagia circumcincta, 24 h, read-out: T. circumcincta LMIT (%). More on the design: species or system Teladorsagia circumcincta.
Text: as §1, §2, §3

Assay [6] concerns C. elegans.
Assay [7] deals with C. elegans. The assay can be described thus: microbe, parasite or virus in culture. Conditions: Caenorhabditis elegans.
For assay [8], the system named is C. elegans. The following applies: read-out: EC50 found in the literature; cited from earlier work.
Setting [9] is: read-out: EC50 (μM) at 24 h, C. elegans motility, DR assay.
Setting [10] is: resistant strain, 100 μM, NE = Not Effective at 100 μM, control thiabendazole 0.1 µg/mL.
Where [11] appears, read: resistant strain, L3, 100 μM, NE = Not Effective at 100 μM, control ivermectin 8.75 µg/mL.
Setting [12] is: C. elegans L4 motility, 110 μM, 0 h, mean ± SD of four experiments.
Setting [13] is: C. elegans L4 motility, 110 μM, 24 h, mean ± SD of four experiments.
Where [14] appears, read: Caenorhabditis elegans, read-out: EC50 (μM) at 24 h, C. elegans motility, DR assay.
The mark [15] stands for this setting: 0 h, read-out: Inhibition (%) 110 μM (0 h).
Setting [16] is: 24 h, read-out: Inhibition (%) 110 μM (24 h).
Where [17] appears, read: Caenorhabditis elegans, 24 h, read-out: EC50 (μM) at 24 h, C. elegans motility, DR assay, 24 h.
[18] abbreviates: 0 h, read-out: Inhibition (%) 110 μM (0 h), C. elegans L4 motility, 110 μM, 0 h, mean ± SD of four experiments.
[19] abbreviates: 24 h, read-out: Inhibition (%) 110 μM (24 h), C. elegans L4 motility, 110 μM, 24 h, mean ± SD of four experiments.
[20] abbreviates: 24 h, read-out: Percentage of motility inhibition 24 h, Table S2, C. elegans SS assay, 110 μM, 24 h, averages of 4 data points.

In the case of `CC1(C)[C@H](OC(=O)c2ccccc2)CC[C@]2(C)C3=C([C@@H](O)C[C@@H]12)[C@@]1(C)CC[C@@]2(C)CC[C@@](C)(COC(=O)c4ccccc4)C[C@H]2[C@]1(C)CC3` [3,29-dibenzoyl rarounitriol], the concentration giving a half-maximal response (EC50) in assay [1] (setting [9]) came out at 45.4 ± 5.1 µM. In addition, the “H. contortus EHI (%)” value in assay [2] is 0.0%. Moreover, the “T. circumcincta EHI (%)” value in assay [3] (setting [10]) was found to be 0.0%. The “H. contortus LMIT (%)” value in assay [4] stood at 0.0%. For the same molecule, the “T. circumcincta LMIT (%)” value in assay [5] (setting [11]) was 0.0 * %. In addition, the “Inhibition (%) 110 μM (0 h)” value in assay [6] (setting [12]) is 40 ± 22%. Moreover, the “Inhibition (%) 110 μM (24 h)” value in assay [6] (setting [13]) was 71 ± 19%.

For the molecule `C[C@@H]1CC[C@@]2(OC1)O[C@H]1C[C@H]3[C@@H]4CC=C5C[C@@H](O[C@@H]6O[C@H](CO)[C@@H](O[C@@H]7O[C@@H](C)[C@H](O)[C@@H](O)[C@H]7O)[C@H](O)[C@H]6O[C@@H]6O[C@@H](C)[C@H](O)[C@@H](O)[C@H]6O)CC[C@]5(C)[C@H]4CC[C@]3(C)[C@H]1[C@@H]2C` [Dioscin], the EC50 in assay [1] (setting [14]) was found to be 37.8 ± 1.3 µM. The inhibition at 100 µM in assay [4] and in assay [5] was 0% throughout. The inhibition at 110 µM in assay [7] (setting [15]) stood at 12 ± 1%; in assay [7] (setting [16]), 79 ± 2%.

As to `CCOc1ccc2nc3cc(N)ccc3c(N)c2c1` [Ethacridine lactate monohydrate, reference compound], in assay [1] (setting [9]), the EC50 was found to be 28.2 ± 1 µM. In assay [2], the “H. contortus EHI (%)” value worked out at 54.8 ± 11.7%. Moreover, the “T. circumcincta EHI (%)” value in assay [3] (setting [10]) is 0.0%. In addition, the “H. contortus LMIT (%)” value in assay [4] was 0.0%. The inhibition at 100 µM in assay [5] (setting [11]) was 0%. In addition, the “Inhibition (%) 110 μM (0 h)” value in assay [6] (setting [12]) is 73 ± 17%. In addition, in assay [6] (setting [13]), the “Inhibition (%) 110 μM (24 h)” value is listed as 89 ± 4%. The inhibition at 110 µM in assay [7] (0 h, read-out: Percentage of motility inhibition 0 h, Table S2, C. elegans SS assay, 110 μM, 0 h, averages of 4 data points) stood at 72%.

As for `CCOc1ccc2nc3cc(N)ccc3c(N)c2c1` [Ethacridine lactate, reference compound], the EC50 in assay [1] (setting [17]) is 50.1 ± 1 µM. In addition, in assay [2] (Haemonchus contortus), the inhibition at 100 µM stood at 55.8 ± 5.1%. Further, the “T. circumcincta EHI (%)” value in assay [3] (setting [10]) was found to be 4.0 ± 1.5%. Further, the “H. contortus LMIT (%)” value in assay [4] was determined as 4.9 ± 2.2%. Also, the inhibition at 110 µM in assay [7] (setting [18]) stood at 66 ± 26%; in assay [7] (setting [19]), 87 ± 6%.

On to `c1ccc([C@H]2CN3CCSC3=N2)cc1` [Levamisole, reference compound], for which the EC50 in assay [1] (setting [17]) is 1.91 µM; in assay [8] it was 6.4 µM. The inhibition at 110 µM in assay [7] (setting [18]) worked out at 87 ± 10%; in assay [7] (setting [19]), 61 ± 3%.

In the case of `CO/N=C1\C[C@]2(C[C@@H]3C[C@@H](C/C=C(\C)C[C@@H](C)/C=C/C=C4\CO[C@@H]5[C@H](O)C(C)=C[C@@H](C(=O)O3)[C@]45O)O2)O[C@H](/C(C)=C/C(C)C)[C@H]1C` [Moxidectin, reference compound], the figures for the EC50 in assay [1] (setting [17]) and in assay [8] were 0.79 µM and 0.03 µM, respectively. In addition, the results for the inhibition at 110 µM in assay [7] (setting [18]), in assay [7] (setting [19]) and in assay [7] (setting [20]) were 99 ± 1%, 85 ± 13% and 86%, respectively.

In the case of `CC[C@@H](C(=O)[C@@H](C)[C@@H](O)[C@H](C)[C@@H]1O[C@@H]([C@@H](CC)C(=O)O)CC[C@@H]1C)[C@H]1O[C@]2(C=C[C@@H](O)[C@]3(CC[C@@](C)([C@H]4CC[C@](O)(CC)[C@H](C)O4)O3)O2)[C@H](C)C[C@@H]1C` [Salinomycin, reference compound], in assay [1] (setting [14]), the EC50 came to 55.3 ± 1.4 µM. The figures for the inhibition at 100 µM in assay [2] (Haemonchus contortus) and in assay [4] were 2.8 ± 5.1% and 0%, respectively. Also, the inhibition at 110 µM in assay [7] (setting [15]) was found to be 81 ± 9%; in assay [7] (setting [16]), 94 ± 1%; in assay [7] (setting [20]), 93%.

As to `c1ccc2[nH]c(-c3cscn3)nc2c1` [Thiabendazole, reference compound], the EC50 in assay [2] (Haemonchus contortus, egg hatching, susceptible H. contortus, nine replicates, read-out: Ovicidal Effect EC50 (μM) H. c) worked out at 0.28 ± 0.01 µM; in assay [3] (Teladorsagia circumcincta, egg hatching, resistant T. circumcincta, nine replicates, read-out: Ovicidal Effect EC50 (μM) T. c), 1.53 ± 0.06 µM. Also, the inhibition at 100 µM in assay [2] (Haemonchus contortus) came to 100%; in assay [3] (Teladorsagia circumcincta, resistant strain, 100 μM, NE = Not Effective at 100 μM, control thiabendazole 0.1 µg/mL) it was 100%.

For the molecule Ivermectin [reference compound], the EC50 in assay [1] (setting [9]) is 2.18 µM; in assay [8], 0.19 µM. Also, the “H. contortus LMIT (%)” value in assay [4] worked out at 100.0 ± 0.0%. Moreover, the “T. circumcincta LMIT (%)” value in assay [5] (setting [11]) is on record as 100.0 ± 0.0%. The “Inhibition (%) 110 μM (0 h)” value in assay [6] stood at 98 ± 1%. Besides, the “Inhibition (%) 110 μM (24 h)” value in assay [6] is listed as 85 ± 14%.

A word on the EC50: it is the concentration at which the effect is half-maximal.
